These results are taken from article PMC10439952, “JT002, a small molecule inhibitor of the NLRP3 inflammasome for the treatment of autoinflammatory disorders” (Scientific Reports, 2023).

Common to all, as to type: cell-based
One assay concerns the target T1, NLRC4 inflammasome (Mus musculus, UniProt Q3UP24).
T1 construct: host or cells: mouse BMDMs, LPS + transfected flagellin
Description: IL-1β production in mouse BMDMs after NLRC4 activation (LPS + flagellin). Conditions: mBMDMs, concentrations up to 10 µM. As to the method: (§1) Cell viability was determined by addition of an equal volume of CellTiter-Glo® 2.0 reagent (Promega) to the remaining cells/supernatant in each well. Intracellular Caspase-1 activity was measured using the Caspase-Glo® assay (Promega) according to the manufacturer’s instructions. The biochemical capsase-1 assay was conducted at Reaction Biology Corporation (Malvern, USA). Human IL-1β, IL-1α, and TNFα and mouse IL-1β were measured in cell culture supernatants using homogeneous time resolved fluorescence assay kits (HTRF, Cisbio, Codolet, France). Human IL-18 was measured in cell culture supernatants using an ELISA kit (R&D Systems, Minneapolis, MN, USA). Plasma IL-1β concentrations were determined by Quantikine® ELISA (R&D Systems, Minneapolis, MN).
(§2) 4H). MS: m/z 433.1 (M+H+). […]
flagellin, prepared in Opt iMEM and combined with Lipofectamine 2000. […] After priming Nlrp3 -/- mBMDMs with 100 ng/mL of LPS for 3- 5 h, cells were exposed to 100 ng/mL L18- MDP and incubated overnight.At the end of the incubation period of the assays above, plates were briefly centri fuged and hal f of the cell culture supern atant remo ved and either analysed i mmediately or stored at - 80°C for subs equent cytokine […]

For assay [1], the target named is T2, NLRP3 inflammasome (Mus musculus, UniProt Q8R4B8). The assay is described as follows: Inhibition of IL-1β production in mouse BMDMs stimulated by LPS + nigericin. Also noted: host or cells: mouse PBMCs; mouse bone-marrow derived macrophages; mouse whole blood (C57BL/6 in the ex vivo study). Conditions: Mouse BMDM, read-out: Geo Av IC50, IL-1β. As to the method:
(§3) Inflammasome activation and whole blood assays were essentially carried out as described earlier. Details can be found in the supplementary information section accompanying this publication. A protocol for blood draws from healthy volunteers and use of the blood in preclinical assays was approved by Western Institutional Review Board, Inc (Puyallup, WA, USA). Informed consent was obtained from each donor prior to the first blood draw.
as §1, §2

In assay [2] the target is T2, NLRP3 inflammasome. The assay is described as follows: Inhibition of non-canonical NLRP3 pathway IL-1β production in mouse BMDMs (Pam3CSK4 + transfected LPS). Also on record: host or cells: mouse PBMCs; mouse bone-marrow derived macrophages; mouse whole blood (C57BL/6 in the ex vivo study). Conditions: Mouse BMDM, read-out: Geo Av IC50, IL-1β. The procedure:
as §3, §1, §2

T2 sequence (Q8R4B8 whole entry): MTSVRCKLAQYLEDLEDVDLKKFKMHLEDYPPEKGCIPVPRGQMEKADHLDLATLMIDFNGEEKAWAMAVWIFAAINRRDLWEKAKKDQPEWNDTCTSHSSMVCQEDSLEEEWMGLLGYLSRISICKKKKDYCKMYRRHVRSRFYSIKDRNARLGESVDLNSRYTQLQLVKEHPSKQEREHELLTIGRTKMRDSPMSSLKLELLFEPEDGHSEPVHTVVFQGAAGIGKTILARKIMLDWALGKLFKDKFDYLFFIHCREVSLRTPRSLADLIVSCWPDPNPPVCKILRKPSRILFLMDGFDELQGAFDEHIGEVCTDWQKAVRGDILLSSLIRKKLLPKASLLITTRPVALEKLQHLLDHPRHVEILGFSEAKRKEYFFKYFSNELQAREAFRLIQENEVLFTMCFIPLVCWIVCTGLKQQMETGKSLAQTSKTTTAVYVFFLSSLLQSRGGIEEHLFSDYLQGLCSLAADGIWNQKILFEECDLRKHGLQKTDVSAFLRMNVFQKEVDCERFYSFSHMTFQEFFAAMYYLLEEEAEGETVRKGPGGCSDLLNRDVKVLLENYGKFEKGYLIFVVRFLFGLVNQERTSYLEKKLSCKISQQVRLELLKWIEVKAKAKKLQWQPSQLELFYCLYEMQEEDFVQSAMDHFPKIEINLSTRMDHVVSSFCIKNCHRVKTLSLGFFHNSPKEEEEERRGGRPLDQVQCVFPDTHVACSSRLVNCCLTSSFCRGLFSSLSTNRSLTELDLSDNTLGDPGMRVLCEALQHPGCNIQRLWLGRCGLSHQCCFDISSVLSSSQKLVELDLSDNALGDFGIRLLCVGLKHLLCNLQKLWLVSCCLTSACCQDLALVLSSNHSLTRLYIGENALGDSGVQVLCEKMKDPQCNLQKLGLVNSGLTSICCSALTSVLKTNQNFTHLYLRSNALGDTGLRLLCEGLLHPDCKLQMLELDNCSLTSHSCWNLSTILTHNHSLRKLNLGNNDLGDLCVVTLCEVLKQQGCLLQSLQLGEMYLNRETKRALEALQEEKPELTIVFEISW
T1 sequence (Q3UP24 whole entry): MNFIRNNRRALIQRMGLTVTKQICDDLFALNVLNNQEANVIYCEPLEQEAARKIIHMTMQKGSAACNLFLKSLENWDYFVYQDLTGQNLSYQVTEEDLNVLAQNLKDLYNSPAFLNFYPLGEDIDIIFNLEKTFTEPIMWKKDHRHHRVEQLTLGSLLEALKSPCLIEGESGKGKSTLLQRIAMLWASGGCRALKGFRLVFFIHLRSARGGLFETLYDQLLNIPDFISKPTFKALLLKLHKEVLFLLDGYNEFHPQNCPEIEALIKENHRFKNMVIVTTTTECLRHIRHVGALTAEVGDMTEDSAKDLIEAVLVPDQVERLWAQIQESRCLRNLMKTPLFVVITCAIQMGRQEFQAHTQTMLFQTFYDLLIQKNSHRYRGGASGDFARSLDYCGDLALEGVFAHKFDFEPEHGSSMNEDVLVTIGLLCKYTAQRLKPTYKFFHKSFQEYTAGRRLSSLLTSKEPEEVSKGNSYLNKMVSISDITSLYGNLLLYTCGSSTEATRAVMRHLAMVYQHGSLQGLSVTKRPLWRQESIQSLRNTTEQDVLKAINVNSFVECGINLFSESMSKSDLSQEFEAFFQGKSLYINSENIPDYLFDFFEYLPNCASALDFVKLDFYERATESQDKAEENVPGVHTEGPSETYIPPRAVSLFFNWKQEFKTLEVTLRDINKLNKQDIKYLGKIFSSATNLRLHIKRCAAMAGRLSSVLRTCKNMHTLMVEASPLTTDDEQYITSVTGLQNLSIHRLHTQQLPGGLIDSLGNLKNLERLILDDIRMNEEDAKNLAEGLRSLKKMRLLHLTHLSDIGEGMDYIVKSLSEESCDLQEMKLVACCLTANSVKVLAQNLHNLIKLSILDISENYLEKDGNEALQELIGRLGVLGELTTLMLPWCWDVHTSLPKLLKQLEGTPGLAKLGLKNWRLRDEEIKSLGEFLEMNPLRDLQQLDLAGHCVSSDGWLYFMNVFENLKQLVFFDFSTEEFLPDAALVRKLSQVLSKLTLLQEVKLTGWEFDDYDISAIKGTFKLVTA

By IC50 is commonly meant the concentration that gives 50% inhibition. For `CO[C@@H]1COc2c(S(=O)(=O)NC(=O)Nc3c4c(cc5c3CCC5)CCC4)cnn2C1` [JT002], at NLRC4 inflammasome, the “inhibition of IL-1β production after NLRC4 activation” value is “no inhibition of IL-1β production”. The results for the IC50 on NLRP3 inflammasome [1] and at NLRP3 inflammasome [2] were 23 nM and 30 nM, respectively.
